Source: publication PMC3741113, “De-Novo Design of Antimicrobial Peptides for Plant Protection” (PLoS ONE, 2013)
“And” between values parts separate entries of the source, which are not always exact repeats. Identical values can stand only once. Like-named read-outs stand apart in the source and are kept apart here. Ends that are not written are not given here.

Tests used:
Pseudomonas corrugata = settings: LB-medium, 27°C
Cladosporium herbarum = settings: 2% malt extract medium, 1.5–2×10^3 spores/ml, room temperature, 3d, visual screening; lowest concentration with no visible growth; at least two independent replicates
Botrytis cinerea = settings: 2% malt extract medium, 1.5–2×10^3 spores/ml, room temperature, 3d, visual screening; lowest concentration with no visible growth; at least two independent replicates
[1] = system: Pseudomonas syringae pv. tomato; settings: LB-medium, 27°C
[2] = system: Clavibacter michiganensis ssp. michiganensis; settings: LB-medium, 27°C
Xanthomonas vesicatoria = settings: LB-medium, 27°C
Alternaria alternata = settings: 2% malt extract medium, 1.5–2×10^3 spores/ml, room temperature, 3d, OD590 nm; lowest concentration with no visible growth; at least two independent replicates
[3] = system: Pectobacterium carotovorum ssp. carotovorum; settings: LB-medium, 27°C
tested plant pathogens = assay: Microdilution assay, activity summarised over several tested plant pathogens; assay type: cell-based; settings: statement over some / the majority of the tested plant pathogens or bacteria
Method: In-vitro inhibition assays were performed in sterile flat-bottom 96-well polypropylene-plates (Greiner bio-one, Frickenhausen, Germany). 10 µl (antibacterial assay) or 20 µl (antifungal assay) of each concentration were loaded per well. Fresh bacterial colonies were transferred into LB-medium, grown to an OD600 nm of 0.08–0.1 and diluted 1∶100 with medium. 90 µl of this suspension containing about 10^5 CFU/ml of bacteria were added to each well resulting in final peptide concentrations from 0 to 100 µg/ml. After incubation at 27°C for 1–2d bacterial growth was analyzed by measuring the OD590 nm using a Tecan Genios microplate reader (Crailsheim, Germany).
Spores of plant pathogenic fungi were collected by washing sporulating cultures with water. Spore concentration was determined by haematocytometer and adjusted to 1.5–2×10^3 spores/ml in 2% malt extract medium. 80 µl of fungal spores were added per well resulting in final peptide concentrations from 0 to 100 µg/ml. After incubation at room temperature for 3d on a rotary shaker (300 rpm), fungal growth was determined by measuring the OD590 nm (Alternaria sp.) or by visual screening of the plates (Botrytis sp., Cladosporium sp.). The lowest peptide concentration, where no visible microbial growth could be detected, was determined for each organism-peptide combination and referred to as the minimal inhibitory concentration (MIC). At least two independent replicates were performed.

[4] = system: Pseudomonas syringae pv. syringae; settings: LB-medium, 27°C
[5] = system: Arabidopsis mesophyll protoplasts; assay: Phytotoxicity on plant protoplasts; assay type: cell-based; settings: 1 h incubation, light microscope
Method: Phytotoxicity was measured on Arabidopsis mesophyll protoplasts prepared from leaves as described in [80]. 80 µl protoplast suspension containing about 5000 protoplasts were incubated with 20 µl peptide solution. Final peptide concentrations were 0, 10, 100 and 200 µg/ml. The phytotoxic effect of antimicrobial peptides was observed after 1 h with a light microscope. Hints to cell death are loss of spherical shape, chloroplast release and/or agglomeration of protoplasts.

human erythrocytes = assay: Hemolytic activity (hemoglobin release); assay type: cell-based; settings: 45 min, 37°C
Method: The hemolytic activity of the peptides was evaluated by determining hemoglobin release of suspensions of fresh human erythrocytes at 405 nm. Human red blood cells (Deutscher Blutspendedienst, München, Germany) were centrifuged and washed three times with Tris-buffer (10 mM Tris, 150 mM NaCl, pH 7.4). 80 µl of cells (1.5×10^9 cells/ml) were added to 20 µl of the peptide solution in 96-well plates and incubated for 45 min at 37°C. Final peptide concentrations were 0, 20, 50, 100 and 200 µg/ml. After centrifugation (1,500 g, 5 min, 20°C) 30 µl aliquots of the supernatant were transferred to 96-well plates containing 100 µl of water and released hemoglobin was determined using a microplate reader (OD405 nm). 100% hemolysis was determined with 2% SDS.

[6] = about 10^5 CFU/ml, 1–2d, OD590 nm, at least two independent replicates

Row | Substance | MIC (Pseudomonas corrugata; [6]) [µg/mL] | MIC (Cladosporium herbarum) [µg/mL] | MIC (Botrytis cinerea) [µg/mL] | MIC [1, 6] [µg/mL] | MIC [2, 6] [µg/mL] | MIC (Xanthomonas vesicatoria; [6]) [µg/mL] | MIC (Alternaria alternata) [µg/mL] | MIC [3, 6] [µg/mL] | active concentrations (MIC) (tested plant pathogens) | MIC [4, 6] [µg/mL] | phytotoxicity to plant protoplasts (in words) [5] | Hemolytic activity: peptide concentration leading to 25% hemoglobin release from human blood cells (human erythrocytes; Tris-buffer pH 7.4, 0, 20, 50, 100, 200 µg/ml, OD405 nm, 100% = 2% SDS, >200 = slight hemolytic activity at 200 µg/ml below threshold) [µg/mL] | MIC (Pseudomonas corrugata; Table 4, incubation period 2d) [µg/mL] | MIC ([1]; Table 4, incubation period 1d) [µg/mL] | MIC ([2]; Table 4, incubation period 2d) [µg/mL] | MIC (Xanthomonas vesicatoria; Table 4, incubation period 2d) [µg/mL] | MIC ([3]; Table 4, incubation period 1d) [µg/mL] | MIC ([4]; Table 4, incubation period 1d) [µg/mL] | Hemolytic activity: peptide concentration leading to 25% hemoglobin release from human blood cells (human erythrocytes; Table 4, highest concentration tested 200 µg/ml)
1 | RKRAARLLKRLV-NH2 [SP2] | 5 | 20 | >100 | 2 | 2 | 2 | >100 | >40 | 1 to 5 µg/mL and 1 to 2 µg/mL | 2 | – | – | – | – | – | – | – | – | –
2 | RKKRLKLLKR LV-NH2 [SP1-D] | 20 | 20 | > 40 | 5 | 40 | 40 | 20 | > 40 | – | 5 | – | – | – | – | – | – | – | – | –
3 | LLKALKKLLKKLL-NH2 [SP9] | >40 | 40 | >100 | 10 | 10 | 5 | >100 | >40 | – | 10 | – | – | – | – | – | – | – | – | –
4 | RKRFARFAKRAV-NH2 [SP3] | >40 | 40 | >100 | 5 | 20 | >40 | >100 | >40 | – | >40 | – | – | – | – | – | – | – | – | –
5 | KRKLIFLAAFLAALALFKKR-NH2 [SP15] | >40 | 40 | >100 | 40 | 2.5 | 20 | >100 | >40 | – | >40 | highly ph ytotoxic | – | – | – | – | – | – | – | –
6 | LRFLKKILKHLF-NH2 [SP10] | – | 10 | >100 | – | – | – | >100 | – | – | – | – | – | – | – | – | – | – | – | –
7 | LLIKFLKRFIKH-NH2 [SP7-D] | 5 | 5 | 20 | – | 5 | 10 | 5 | 40 | – | – | – | – | – | – | – | – | – | – | –
8 | KRKLTLVFGVMAGVIGTKKR-NH2 [SP14] | >40 | 100 | >100 | 40 | 20 | >40 | >100 | >40 | – | >40 | – | – | – | – | – | – | – | – | –
9 | RKKRLKLLKRLV-NH2 [SP1] | – | 10 | >100 | – | – | – | >100 | – | 1 to 5 µg/mL and 1 to 2 µg/mL | – | – | – | – | – | – | – | – | – | –
10 | LRALAKALKHKL-NH2 [SP11] | 10 | 20 | >100 | 5 | >40 | >40 | >100 | >40 | – | >40 | – | – | – | – | – | – | – | – | –
11 | LKALRKALKHLA-NH2 [SP12] | >40 | 20 | >100 | 2.5 | >40 | 20 | >100 | >40 | – | 10 | – | >200 | – | – | – | – | – | – | –
12 | KRRLAAFRAFRGALKSVLKK-NH2 [SP16] | 2.5 | 20 | >100 | 5 | 5 | 5 | >100 | >40 | – | 5 | – | – | – | – | – | – | – | – | –
13 | KRRLIARILRLAARALVKKR-NH2 [SP13] | – | 20 | >100 | – | – | – | >100 | – | – | – | – | – | – | – | – | – | – | – | –
14 | KKKAARALKRAL-NH2 [SP4] | >40 | 40 | >100 | 10 | 40 | >40 | >100 | >40 | – | >40 | – | – | – | – | – | – | – | – | –
15 | RKKKVKLLKRLV-NH2 [SP1-3] | – | – | – | – | – | – | – | – | – | – | – | – | 2.5 | 5.0 | >10 | >10 | >10 | 0.25 | –
16 | LRFLRRILRRLL-NH2 [SP10-8] | – | – | – | – | – | – | – | – | – | – | – | – | 0.5 | 1.0 | 0.5 | 0.5 | 2.5 | 0.5 | –
17 | RKKKFKFFKRFF-NH2 [SP1-13] | – | – | – | – | – | – | – | – | – | – | – | – | <0.1 | 2.5 | 0.25 | 0.5 | >10 | 0.1 | –
18 | KRRKAIKILKLIAKLIRKKR-NH2 [SP13-8] | – | – | – | – | – | – | – | – | – | – | – | – | 0.25 | 10 | 0.1 | 0.1 | >10 | >10 | –
19 | LRKLKKILKKLF-NH2 [SP10-10] | – | – | – | – | – | – | – | – | – | – | – | – | 0.25 | 0.5 | 0.25 | 0.1 | 2.5 | 0.25 | – (no value indicates none detectable hemolytic activity up to the highest concentration tested)
20 | KRRLALFRAFRLALKSVLKK-NH2 [SP13-10] | – | – | – | – | – | – | – | – | – | – | – | – | 0.25 | 1.0 | 0.1 | 0.1 | >10 | >10 | –
21 | KRRLALFRLFRLALKLVLKK-NH2 [SP13-11] | – | – | – | – | – | – | – | – | – | – | – | – | >10 | 2.5 | 2.5 | 2.5 | >10 | >10 | –
22 | RKKKFKFFKRLF-NH2 [SP1-12] | – | – | – | – | – | – | – | – | – | – | – | – | 0.25 | >10 | 0.5 | 0.5 | >10 | 0.1 | –
23 | KRRLIFRILKLFFRFLVKKR-NH2 [SP13-4] | – | – | – | – | – | – | – | – | – | – | – | – | 5.0 | >10 | 1.0 | 2.5 | >10 | 10 | –
24 | LRFIKKILKKLI-NH2 [SP10-4] | – | – | – | – | – | – | – | – | – | – | – | – | 2.5 | 1.0 | 0.25 | 0.1 | 2.5 | 0.25 | –
25 | RKKKFKIFKRLF-NH2 [SP1-14] | – | – | – | – | – | – | – | – | – | – | – | – | 0.5 | 1.0 | 1.0 | 1.0 | >10 | <0.1 | –
26 | RKKRKKLLKRLI-NH2 [SP1-20] | – | – | – | – | – | – | – | – | – | – | – | – | 0.5 | 10 | 5.0 | 10 | >10 | 0.25 | –
